Among the data in patent publication US9409898B2, “Substituted pyrazole compounds as CRAC modulators” (LUPIN LIMITED, priority 2012, dated 2016) are IC50 values, retold here.

The assay relates to IL-2 secretion. Briefly: Inhibition of IL-2 secretion in PHA-stimulated Jurkat T cells (ELISA). It counts as cell-based. To be noted: Homo sapiens, PHA stimulation, 20 to 24 hours, IL-2 by ELISA. The procedure:
The CRAC channel modulatory activity of the compounds were thus evaluated by measuring the secretion of IL-2 by antigen stimulated T-cells in vitro. Alternatively, such activity can also be evaluated by assay methods known to one skilled in the art.
Inhibition of IL-2 secretion: Jurkat T cells were seeded at a density of 0.5 to 1 million cells per well in RPMI medium. Test compounds from this invention were added to the cells at different concentrations. This was followed by the addition of PHA, a T cell mitogen after 10 minutes. The cells were then incubated for 20 to 24 hours in a CO2 incubator at 37° C. After incubation with the compounds, cells were centrifuged, the supernatant was collected and processed for ELISA to quantitate the amount of IL-2 secreted. A commercial ELISA kit (R&D Systems, Inc. Minneapolis, Minn., USA) was used to estimate the IL-2 concentrations. Amount of IL-2 secreted by cells stimulated with PHA was considered as a 100% maximal signal and the decrease in amount of IL-2 secreted by cells treated with the test compounds was expressed as percent inhibition of the maximal signal. The dose response data was analyzed using 4-parametric sigmoidal dose response (variable slope) curve—fit.
As for `Cn1nc(-c2cc(C(F)(F)F)n(-c3ccc(NC(=O)c4c(F)cccc4F)cn3)n2)oc1=O` [Example 8, 2,6-Difluoro-N-(6-(3-(4-methyl-5-oxo-4,5-dihydro-1,3,4-oxadiazol-2-yl)-5-(trifluoromethyl)-1H-pyrazol-1-yl)pyridin-3-yl)benzamide], the IC50 was under 0.1 µM.

In turn, `Cn1nc(-c2cc(C3CC3)nn2-c2ccc(NC(=O)c3c(F)cccc3F)cn2)oc1=O` [Example 30, N-(6-(3-Cyclopropyl 5-(4-methyl-5-oxo-4,5-dihydro-1,3,4-oxadiazol-2-yl)-1H-pyrazol-1-yl)pyridin-3-yl)-2,6-difluorobenzamide] gave an IC50 of 0.1 to 1 µM.

`Cn1nc(-c2cc(C(F)(F)F)n(-c3ccc(NC(=O)c4cccc(F)c4F)nc3)n2)oc1=O` [Example 42, 2,3-Difluoro-N-(5-(3-(4-methyl-5-oxo-4,5-dihydro-1,3,4-oxadiazol-2-yl)-5-(trifluoromethyl)-1H-pyrazol-1-yl)pyridin-2-yl)benzamide] had an IC50 of under 0.1 µM.

In turn, `CC1(C)ON=C(c2cc(C(F)(F)F)n(-c3ccc(NC(=O)c4c(F)cccc4F)cn3)n2)C1=O` [Example 14, N-(6-(3-(5,5-Dimethyl-4-oxo-4,5-dihydroisoxazol-3-yl)-5-(trifluoromethyl)-1H-pyrazol-1-yl)pyridin-3-yl)-2,6-difluorobenzamide] came in with an IC50 of under 0.1 µM.

Compound `Cn1c(-c2cc(C(F)(F)F)n(-c3ccc(NCc4c(F)cccc4F)cn3)n2)noc1=O` [Example 26, 3-(1-(5-((2,6-Difluorobenzyl)amino)pyridin-2-yl)-5-(trifluoromethyl)-1H-pyrazol-3-yl)-4-methyl-1,2,4-oxadiazol-5(4H)-one] displayed an IC50 of 0.1 to 1 µM.

Compound `CCc1ccc(C(=O)Nc2ccc(-n3nc(-c4nn(C)c(=O)o4)cc3C(F)(F)F)cn2)cc1` [Example 49, 4-Ethyl-N-(5-(3-(4-methyl-5-oxo-4,5-dihydro-1,3,4-oxadiazol-2-yl)-5-(trifluoromethyl)-1H-pyrazol-1-yl)pyridin-2-yl)benzamide] yielded an IC50 of 0.1 to 1 µM.

The compound `CC1(CO)CC(c2cc(C(F)(F)F)n(-c3ccc(NCc4c(F)cccc4Cl)cn3)n2)=NO1` (stereo not shown) [Example 34, (3-(1-(5-((2-Chloro-6-fluorobenzyl)amino)pyridin-2-yl)-5-(trifluoromethyl)-1H-pyrazol-3-yl)-5-methyl-4,5-dihydroisoxazol-5-yl)methanol] displayed an IC50 of 0.1 to 1 µM.

As to `Cc1ccccc1C(=O)Nc1ccc(-n2nc(-c3nn(C)c(=O)o3)cc2C(F)(F)F)cn1` [Example 48, 2-Methyl-N-(5-(3-(4-methyl-5-oxo-4,5-dihydro-1,3,4-oxadiazol-2-yl)-5-(trifluoromethyl)-1H-pyrazol-1-yl)pyridin-2-yl)benzamide], the IC50 is under 0.1 µM.

With `Cc1cc(-c2nn(C)c(=O)o2)nn1-c1ccc(NC(=O)c2c(F)cccc2F)cn1` [Example 31, 2,6-Difluoro-N-(6-(5-methyl-3-(4-methyl-5-oxo-4,5-dihydro-1,3,4-oxadiazol-2-yl)-1H-pyrazol-1-yl)pyridin-3-yl)benzamide], the IC50 is over 1 µM.

As for `Cn1nc(-c2cc(C(F)(F)F)n(-c3ccc(NC(=O)c4c(F)cccc4Cl)cn3)n2)oc1=O` [Example 9, 2-Chloro-6-fluoro-N-(6-(3-(4-methyl-5-oxo-4,5-dihydro-1,3,4-oxadiazol-2-yl)-5-(trifluoromethyl)-1H-pyrazol-1-yl)pyridin-3-yl)benzamide], the IC50 is under 0.1 µM.

The compound `Cn1nc(-c2cc(C(F)(F)F)nn2-c2ccc(NC(=O)c3c(F)cccc3F)cn2)oc1=O` [Example 1, 2,6-Difluoro-N-(6-(5-(4-methyl-5-oxo-4,5-dihydro-1,3,4-oxadiazol-2-yl)-3-(trifluoromethyl)-1H-pyrazol-1-yl)pyridin-3-yl)benzamide] registered an IC50 of 0.1 to 1 µM.

Consider `Cn1nc(-c2cc(C3CC3)nn2-c2ccc(NCc3c(F)cccc3F)cn2)oc1=O` [Example 3, 5-(3-Cyclopropyl-1-(5-((2,6-difluorobenzyl)amino)pyridin-2-yl)-1H-pyrazol-5-yl)-3-methyl-1,3,4-oxadiazol-2(3H)-one], for which the concentration for half-maximal inhibition (IC50) is 0.1 to 1 µM.

`Cn1nc(-c2cc(C(F)F)n(-c3ccc(NC(=O)c4c(F)cccc4F)cn3)n2)oc1=O` [Example 11, N-(6-(5-(Difluoromethyl)-3-(4-methyl-5-oxo-4,5-dihydro-1,3,4-oxadiazol-2-yl)-1H-pyrazol-1-yl)pyridin-3-yl)-2,6-difluorobenzamide]: the IC50 is under 0.1 µM.

In the case of `Cn1nc(-c2cc(C3CC3)n(-c3ccc(NC(=O)c4c(F)cccc4F)cn3)n2)oc1=O` [Example 29, N-(6-(5-Cyclopropyl-3-(4-methyl-5-oxo-4,5-dihydro-1,3,4-oxadiazol-2-yl)-1H-pyrazol-1-yl)pyridin-3-yl)-2,6-difluorobenzamide], the IC50 lay in the range of 0.1 to 1 µM.

Turning to `COC(=O)C1(C)CC(c2cc(C(F)(F)F)n(-c3ccc(NCc4c(F)cccc4F)cn3)n2)=NO1` (stereo not shown) [Example 6, Methyl 3-(1-(5-((2,6-difluorobenzyl)amino)pyridin-2-yl)-5-(trifluoromethyl)-1H-pyrazol-3-yl)-5-methyl-4,5-dihydroisoxazole-5-carboxylate], the half-maximal inhibitory concentration (IC50) is 0.1 to 1 µM.

The compound `Cc1cccc(F)c1C(=O)Nc1ccc(-n2nc(C(F)(F)F)cc2-c2nn(C)c(=O)o2)nc1` [Example 2, 2-Fluoro-6-methyl-N-(6-(5-(4-methyl-5-oxo-4,5-dihydro-1,3,4-oxadiazol-2-yl)-3-(trifluoromethyl)-1H-pyrazol-1-yl)pyridin-3-yl)benzamide] gave an IC50 of 0.1 to 1 µM.

Regarding `Cn1nc(-c2cc(C(F)(F)F)n(-c3ccc(NC(=O)c4ccc(F)c(F)c4F)nc3)n2)oc1=O` [Example 44, 2,3,4-Trifluoro-N-(5-(3-(4-methyl-5-oxo-4,5-dihydro-1,3,4-oxadiazol-2-yl)-5-(trifluoromethyl)-1H-pyrazol-1-yl)pyridin-2-yl)benzamide], the IC50 was under 0.1 µM.

As for `Cn1nc(-c2cc(C(F)(F)F)n(-c3ccc(NCc4c(F)cccc4Cl)nc3)n2)oc1=O` [Example 52], the IC50 is under 0.1 µM.

Turning to `Cn1nc(-c2cc(C(F)(F)F)n(-c3ccc(C(=O)Nc4c(F)cccc4F)cn3)n2)oc1=O` [Example 54, N-(2,6-Difluorophenyl)-6-(3-(4-methyl-5-oxo-4,5-dihydro-1,3,4-oxadiazol-2-yl)-5-(trifluoromethyl)-1H-pyrazol-1-yl)nicotinamide], the IC50 was 0.1 to 1 µM.

In turn, `CC1(C(N)=O)CC(c2cc(C(F)(F)F)n(-c3ccc(NC(=O)c4c(F)cccc4F)cn3)n2)=NO1` (stereo not shown) [Example 37, 3-(1-(5-(2,6-Difluorobenzamido)pyridin-2-yl)-5-(trifluoromethyl)-1H-pyrazol-3-yl)-5-methyl-4,5-dihydroisoxazole-5-carboxamide] registered an IC50 of under 0.1 µM.

For the compound `Cn1nc(-c2cc(C(F)(F)F)n(-c3ccc(NC(=O)c4ccc5ccccc5c4)nc3)n2)oc1=O` [Example 50, N-(5-(3-(4-Methyl-5-oxo-4,5-dihydro-1,3,4-oxadiazol-2-yl)-5-(trifluoromethyl)-1H-pyrazol-1-yl)pyridin-2-yl)-2-naphthamide], the IC50 lay within 0.1 to 1 µM.

Turning to `Cc1cccc(F)c1CNc1ccc(-n2nc(-c3nn(C)c(=O)o3)cc2C(F)(F)F)cn1` [Example 53, 5-(1-(6-((2-Fluoro-6-methylbenzyl)amino)pyridin-3-yl)-5-(trifluoromethyl)-1H-pyrazol-3-yl)-3-methyl-1,3,4-oxadiazol-2(3H)-one], the IC50 was under 0.1 µM.

`Cn1nc(-c2cc(C(F)(F)F)n(-c3ccc(NCc4c(F)cccc4F)cn3)n2)oc1=O` [Example 22, 5-(1-(5-((2,6-Difluorobenzyl)amino)pyridin-2-yl)-5-(trifluoromethyl)-1H-pyrazol-3-yl)-3-methyl-1,3,4-oxadiazol-2(3H)-one] showed an IC50 of under 0.1 µM.

The compound `CN1N=C(c2cc(C(F)(F)F)n(-c3ccc(NC(=O)c4c(F)cccc4F)cn3)n2)C(C)(C)C1=O` [Example 16, 2,6-Difluoro-N-(6-(1′,4′,4′-trimethyl-5′-oxo-5-(trifluoromethyl)-4′,5′-dihydro-1H,1′H-[3,3′-bipyrazol]-1-yl)pyridin-3-yl)benzamide] displayed a half-maximal inhibitory concentration (IC50) of 0.1 to 1 µM.

For the compound `Cc1cccc(F)c1C(=O)Nc1ccc(-n2nc(C3=NN(C)C(=O)C3(C)C)cc2C(F)(F)F)nc1` [Example 18, 2-Fluoro-6-methyl-N-(6-(1′,4′,4′-trimethyl-5′-oxo-5-(trifluoromethyl)-4′,5′-dihydro-1H,1′H-[3,3′-bipyrazol]-1-yl)pyridin-3-yl)benzamide], the half-maximal inhibitory concentration (IC50) is under 0.1 µM.

`CC1(C)ON=C(c2cc(C(F)(F)F)n(-c3ccc(NC(=O)c4c(F)cccc4Cl)cn3)n2)C1=O` [Example 15, 2-Chloro-N-(6-(3-(5,5-dimethyl-4-oxo-4,5-dihydroisoxazol-3-yl)-5-(trifluoromethyl)-1H-pyrazol-1-yl)pyridin-3-yl)-6-fluorobenzamide]: the IC50 was under 0.1 µM.

For `Cn1nc(-c2cc(C(F)(F)F)n(-c3ccc(NC(=O)c4ccc(F)cc4F)nc3)n2)oc1=O` [Example 45, 2,4-Difluoro-N-(5-(3-(4-methyl-5-oxo-4,5-dihydro-1,3,4-oxadiazol-2-yl)-5-(trifluoromethyl)-1H-pyrazol-1-yl)pyridin-2-yl)benzamide], the IC50 was under 0.1 µM.

With `CC(=O)N1N=C(c2cc(C(F)(F)F)n(-c3ccc(NCc4c(F)cccc4F)cn3)n2)OC1(C)C` [Example 27, 1-(5-(1-(5-((2,6-Difluorobenzyl)amino)pyridin-2-yl)-5-(trifluoromethyl)-1H-pyrazol-3-yl)-2,2-dimethyl-1,3,4-oxadiazol-3(2H)-yl)ethanone], the IC50 was in the range of 0.1 to 1 µM.
